Patent publication US20030040485A1, “alpha/beta-adrenoceptors blockers and angiotensin converting enzyme inhibitors derived from hydroxyphenyl carboxylic acid and alcohol” (priority 2001, published 2003)

How the values were obtained:
[1] = system: β2-adrenoceptor (trachea); test: β2-adrenoceptor antagonism, trachea, pA2; design: species or system rat; conditions: Schild plot, mean ± SEM of six to eight experiments
Experimental: (§1) When the spontaneously beating rate of right atria reached a certain stability, cumulative administration of L-isoproterenol from 1×10^−10˜3×10^−10 M caused the heart rate to increase continuously, and a cumulative dose-response curve was obtained. Then the L-isoproterenol was thoroughly washed off with Kreb's solution to recover the right atria's heart rate stability. After the equilibrum was reached again for at least 60 minutes, different concentrations (10^−7, 10^−6, 10^−5 M) of compounds were added. 30 minutes later, cumulative administration of L-isoproterenol from 1×10^−10˜3×10^−10 M were carried out again, and another new cumulative dose-response curve was obtained. Administration of L-isoproterenol started from concentration 1×10^−10 M, and the concentration was raised 0.5 log each time for a total of six times. Cumulative administration interval was when the previous concentration reached its greatest effect, the next concentration would be immediately given. […] In other groups of rats, after separate administration of test compounds, their pA2 values were obtained.
pA2=−Log KB Log(DRADJ−1)=n log[B]−LogKB

[2] = target: T1, angiotensin converting enzyme (ACE) (Rattus norvegicus, UniProt P47820); test: ACE inhibitory activity in rat serum (Hycor kit, [3H]-hippuryl-glycyl-glycine); assay type: biochemical; conditions: mean of three samples
T1 construct: from tissue; host or cells: rat serum
T1 sequence (P47820 36-1238 limits assumed): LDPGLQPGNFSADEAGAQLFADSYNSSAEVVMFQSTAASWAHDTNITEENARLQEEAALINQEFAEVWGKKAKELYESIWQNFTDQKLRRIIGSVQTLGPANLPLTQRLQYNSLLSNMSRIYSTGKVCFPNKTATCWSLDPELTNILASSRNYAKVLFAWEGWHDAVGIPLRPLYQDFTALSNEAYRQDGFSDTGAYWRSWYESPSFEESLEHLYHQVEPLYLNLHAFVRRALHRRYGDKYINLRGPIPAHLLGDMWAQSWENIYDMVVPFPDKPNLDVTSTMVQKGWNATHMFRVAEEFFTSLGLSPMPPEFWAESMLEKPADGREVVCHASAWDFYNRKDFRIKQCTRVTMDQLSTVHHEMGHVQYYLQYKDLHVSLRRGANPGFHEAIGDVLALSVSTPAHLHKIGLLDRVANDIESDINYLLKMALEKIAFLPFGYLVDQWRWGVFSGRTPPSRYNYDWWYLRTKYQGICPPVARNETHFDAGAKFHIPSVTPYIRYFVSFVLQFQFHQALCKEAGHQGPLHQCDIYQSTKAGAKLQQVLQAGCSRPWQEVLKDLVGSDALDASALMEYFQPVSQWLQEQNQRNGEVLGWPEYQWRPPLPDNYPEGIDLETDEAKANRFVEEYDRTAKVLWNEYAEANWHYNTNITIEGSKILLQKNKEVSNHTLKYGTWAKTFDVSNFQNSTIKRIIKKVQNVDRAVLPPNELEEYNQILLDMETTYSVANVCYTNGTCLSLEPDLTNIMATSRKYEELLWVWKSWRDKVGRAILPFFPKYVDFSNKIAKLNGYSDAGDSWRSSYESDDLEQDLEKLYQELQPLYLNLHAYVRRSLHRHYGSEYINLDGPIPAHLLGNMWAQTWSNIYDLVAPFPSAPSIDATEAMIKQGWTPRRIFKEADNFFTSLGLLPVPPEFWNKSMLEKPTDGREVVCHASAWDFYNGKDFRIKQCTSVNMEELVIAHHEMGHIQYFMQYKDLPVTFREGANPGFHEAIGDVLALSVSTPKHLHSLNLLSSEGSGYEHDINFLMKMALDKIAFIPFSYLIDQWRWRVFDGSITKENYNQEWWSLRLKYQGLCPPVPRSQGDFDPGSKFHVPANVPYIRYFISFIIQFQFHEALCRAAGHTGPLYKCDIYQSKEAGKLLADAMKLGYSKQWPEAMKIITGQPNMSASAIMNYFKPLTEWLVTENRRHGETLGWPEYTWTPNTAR
Experimental: ACE value in serum was determined by Hycor kit, rat serum were cultured in 37° C. of [^3H]-hippuryl-glycyl-glycine for 60 minutes. While [^3H]-hippuryl-glycyl-glycine contains three peptide. [^3H] hippuric acid was obtained when extracted of culture solution with ethyl acetate, the content be determined by spectrophotometer. The content in serum sample was as the control group after it was added with 10^−8M, 10^−7M, 10^−6M compounds, then dissolved in PBS.

[3] = system: β1-adrenoceptor (right atrium); test: β1-adrenoceptor antagonism, spontaneously beating right atrium, pA2 vs L-isoproterenol; conditions: for β1/β2 Ratio: antilogarithm of difference between mean pA2 of right atrium and trachea; for β1 pA2 value, Right atrium: Schild plot, mean ± SEM of six to eight experiments
Experimental: The spontaneously-beating right atria was clipped on both end by heart shaped clips, where one end was fixed at the bottom of 10 ml of tissue bath made of physiological saline solution, and temperature maintained at 37° C. The other end of the atria was connected to a force transducer, and isometric contractions and beating rate of the right atria were recorded by COULBOURN AT-High-Speed VideoFigure. After the samples were given 250 mg of contractions and reach equilibrium the following experiments were carried out:
as §1
pA2=−Log KB Log(DRADJ−1)=n log[B]−LogKB

Row | SMILES | β2 pA2 value, Trachea [1] | Inhibitory activity of ACE, In Rat Serum ([2]; 10^−6M) | Inhibitory activity of ACE, In Rat Serum ([2]; 10^−7M) | Inhibitory activity of ACE, In Rat Serum ([2]; 10^−8M) | β1/β2 Ratio [3] | β1 pA2 value, Right atrium [3]
1 | CCOC(=O)C(CCc1ccc(OCC(O)CNCCOc2ccccc2OC)cc1)NC(C)C(=O)N1CCCC1C(=O)O (mixture of isomers) [compound 6, Labetapril] | 5.43 | 81% | 67% | 28% | 1.4 | 5.41
2 | CCOC(=O)C(CCc1ccccc1)NC(C)C(=O)N1CCCC1C(=O)OCc1ccc(OCC(O)CNC(C)(C)C)c(OC)c1 (stereo not drawn) [compound 7, Vanynolpril] | 5.64 | 83% | 74% | 35% | 1.9 | 5.87
